As usually defined, the mortality is the share of the test organisms that died. Read a low mortality as more survivors.

Series [1] relates to emulsion-induced hyperlipidemic rats. The experiment in a line: antihyperlipidemic activity in emulsion-induced hyperlipidemic rats. The settings on record: Rattus norvegicus, po, 72 h, 300 mg/kg daily via stomach tube, 3 days, male S.D. rats, lipids emulsion, versus control group; for change in vivo at 300 mg/kg: "-" = reduction rate, read-out: Increase rate of serum HDL-Chol.; for inhibition in vivo at 300 mg/kg: read-out: Reduction rate of serum Chol. It is filed as in vivo. Here is the method: The antihyperlipidemic activity in emulsion-induced hyperlipidemic rats: Male S. D. rats weighing 80-90 g (4 weeks old) were used. They were devided into groups of 5 to 6 rats each. The test compounds suspended in 0.5% CMC-Na(carboxymethyl cellulose sodium salt) were given to the rats in a daily dose of 4.0 ml/kg (i.e. 300 mg/kg of the test compounds) via stomach tube every 10:00 a.m. After 30 min., lipids emulsion having the following composition was orally given to the rats in an amount of 2.5 ml per rat. During the experimental period of 3 days, the rats were fed on a standard commercial diet and water ad libitum. […] The total cholesterol and HDL cholesterol were measured. The weight of the liver was measured. To the control group, only the aqueous CMC-Na solution and the lipids emulsion were given. The fractionation of lipoproteins was conducted by a dextran sulfate-MgCl2 precipitation method. Cholesterol in serum was measured by means of a cholesterol measuring kit (Cholesterol C-Test Wako, manufactured by Wako Junyaku Co., Ltd.), and cholesterol in HDL was measured by means of NC Hi-Set, manufactured by Nippon Chemiphar Co., Ltd. In the following description, cholesterol is referred to as "Chol". Further, the reduction rate of Chol was calculated by the following equation. [formula] where A is the amount of serum Chol (mg/dl) of the control group, and B is the amount of serum Chol (mg/dl) of the group to which the therapeutic agent was administered. Likewise, the increase rate of serum HDL-Chol was calculated by the following equation. [formula] where C is the amount of serum HDL-Chol (mg/dl) of the control group, and D is the amount of serum HDL-Chol (mg/dl) of the group to which the therapeutic agent was administered.

Series [2] in a line: acute toxicity (mortality after seven days). The settings on record: mouse, in vivo, po, 4000 mg/kg p.o., male ddY mice. Here is the method: The test compounds suspended in 0.5% CMC-Na were administered p.o. to male ddY mice. The acute toxicity was determined based on the mortality after seven days. In respect of the Compound Nos. 1, 2, 3, 4, 6, 7, 10, 12 and 13 of the present invention, the mortality was 0% even at a dose of as high as 4000 mg/kg by oral administration.

For series [3] the following is noted: literature, and its derivatives; cited from earlier work.
For series [4] the following is noted: animal experiments, Svoboda and Azarnoff, Cancer Res. 39, 3419 (1979); cited from earlier work.

Structures are written as SMILES.

Consider `CSc1ccc(C2SC(=S)N(C)C(c3ccc(SC)cc3)N2C)cc1` (stereo not shown) [compound 11], for which, in series [1], the change in vivo at 300 mg/kg came out at 53% and the inhibition in vivo at 300 mg/kg is 13%.

On to `COc1ccc(C2SC(=S)N(C)C(c3ccc(OC)cc3OC)N2C)c(OC)c1` (stereo not shown) [compound 12], for which, in series [1], the change in vivo at 300 mg/kg stood at 46% and the inhibition in vivo at 300 mg/kg stood at 31%. For the same compound, the mortality at 168 h in series [2] worked out at 0%.

Turning to `CN1C(=S)SC(c2ccc(F)cc2)N(C)C1c1ccc(F)cc1` (stereo not shown) [compound 8], in series [1], the change in vivo at 300 mg/kg was found to be 37% and the inhibition in vivo at 300 mg/kg was 26%.

With `COc1ccccc1C1SC(=S)N(C)C(c2ccccc2OC)N1C` (stereo not shown) [Compound No. 3], in series [1], the change in vivo at 300 mg/kg was 33% and the inhibition in vivo at 300 mg/kg was found to be 32%. In series [2], this compound had a mortality at 168 h of 0%.

Turning to `CCOc1ccccc1C1SC(=S)N(C)C(c2ccccc2OCC)N1C` (stereo not shown) [compound 7], in series [1], the change in vivo at 300 mg/kg was found to be 14% and the inhibition in vivo at 300 mg/kg was 37%. Besides, the mortality at 168 h in series [2] came out at 0%.

Regarding `Cc1ccccc1C1SC(=S)N(C)C(c2ccccc2C)N1C` (stereo not shown) [compound 6], in series [1], the change in vivo at 300 mg/kg was found to be 61% and the inhibition in vivo at 300 mg/kg came to 40%. The compound further had a mortality at 168 h in series [2] of 0%.

As for `COc1ccc(C2SC(=S)N(C)C(c3ccc(OC)cc3)N2C)cc1` (stereo not shown) [Compound No. 1, 3,5-Dimethyl-4,6-di(p-methoxyphenyl)-tetrahydro-2H-1,3,5-thiadiazine-2-thione], in series [1], the change in vivo at 300 mg/kg was found to be 53% and the inhibition in vivo at 300 mg/kg came out at 42%. In series [2], this compound gave a mortality at 168 h of 0%.

For `CC(C)c1ccc(C2SC(=S)N(C)C(c3ccc(C(C)C)cc3)N2C)cc1` (stereo not shown) [compound 9], in series [1], the change in vivo at 300 mg/kg was determined as 56% and the inhibition in vivo at 300 mg/kg amounted to 30%.

In the case of `COc1cc(C2SC(=S)N(C)C(c3cc(OC)c(OC)c(OC)c3)N2C)cc(OC)c1OC` (stereo not shown) [compound 14], in series [1], the change in vivo at 300 mg/kg came to 6% and the inhibition in vivo at 300 mg/kg was 19%.

Take `CN1C(=S)SC(c2ccc(Oc3ccccc3)cc2)N(C)C1c1ccc(Oc2ccccc2)cc1` (stereo not shown) [compound 10]: in series [1], the change in vivo at 300 mg/kg is -23% and the inhibition in vivo at 300 mg/kg was determined as 53%. Moreover, the mortality at 168 h in series [2] turned out to be 0%.

Take `COc1cccc(C2SC(=S)N(C)C(c3cccc(OC)c3OC)N2C)c1OC` (stereo not shown) [compound 16]: in series [1], the change in vivo at 300 mg/kg came out at 44% and the inhibition in vivo at 300 mg/kg was 34%.

`Cc1ccc(C2SC(=S)N(C)C(c3ccc(C)cc3)N2C)cc1` (stereo not shown) [Compound No. 4]: in series [1], the change in vivo at 300 mg/kg was found to be 99% and the inhibition in vivo at 300 mg/kg came out at 49%. The compound also gave a mortality at 168 h in series [2] of 0%.

Regarding `CCOC(=O)C(C)(C)Oc1ccc(Cl)cc1` [Clofibrate, reference compound], in series [1], the change in vivo at 300 mg/kg is -8% and the inhibition in vivo at 300 mg/kg was found to be 45%. Further, the side effects reported result in series [3] is on record as “myalgia or hepatic insufficiency,and they are likely to lead to gallstone formation”. In addition, the hepatic carcinoma entry in series [4] is recorded as “brings about hepatic carcinoma on animal experiments”.

Consider `CCN1C(=S)SC(c2ccccc2)N(CC)C1c1ccccc1` (stereo not shown) [compound 15], for which, in series [1], the change in vivo at 300 mg/kg is 31% and the inhibition in vivo at 300 mg/kg was found to be 45%.

As for `COc1cccc(C2SC(=S)N(C)C(c3cccc(OC)c3)N2C)c1` (stereo not shown) [Compound No. 2], in series [1], the change in vivo at 300 mg/kg was determined as 25% and the inhibition in vivo at 300 mg/kg is 41%. Further, the mortality at 168 h in series [2] turned out to be 0%.

With `CN1C(=S)SC(c2ccc3c(c2)OCO3)N(C)C1c1ccc2c(c1)OCO2` (stereo not shown) [compound 13], in series [1], the change in vivo at 300 mg/kg was 54% and the inhibition in vivo at 300 mg/kg was found to be 52%. Moreover, in series [2], the mortality at 168 h was 0%.

With `O=C(O)c1cccnc1` [nicotinic acid], in series [3], the side effects reported result is recorded as “flashing or gastroenteric troubles”.

In the case of `Cc1cccc(C2SC(=S)N(C)C(c3cccc(C)c3)N2C)c1` (stereo not shown) [Compound No. 5], in series [1], the change in vivo at 300 mg/kg is 52% and the inhibition in vivo at 300 mg/kg was 44%.

Values taken from patent publication US4639444A, “3,5-dialkyl-4,6-diaryl-tetrahydro-2H-13,5-thiadiazine-2-thione derivative, process for its production and antihyperlipidemic agent containing it” (Nissan Chemical Industries Ltd., priority 1984, dated 1987).
